Assay results published in patent US7504393B2, “Benzylamine analogues” (priority 2001, dated 2009).
Counter-ions that a name gives are not always drawn. Like-named read-outs stand apart in the source and are kept apart here.

How the values were obtained:
acetylcholinesterase = molecular target: T1, acetylcholinesterase (Mus musculus, UniProt P21836); experiment: biochemical
T1 construct: phosphate buffer solution containing the brain homogenate; from tissue; host or cells: mouse whole brain homogenate
T1 sequence (P21836 32-614): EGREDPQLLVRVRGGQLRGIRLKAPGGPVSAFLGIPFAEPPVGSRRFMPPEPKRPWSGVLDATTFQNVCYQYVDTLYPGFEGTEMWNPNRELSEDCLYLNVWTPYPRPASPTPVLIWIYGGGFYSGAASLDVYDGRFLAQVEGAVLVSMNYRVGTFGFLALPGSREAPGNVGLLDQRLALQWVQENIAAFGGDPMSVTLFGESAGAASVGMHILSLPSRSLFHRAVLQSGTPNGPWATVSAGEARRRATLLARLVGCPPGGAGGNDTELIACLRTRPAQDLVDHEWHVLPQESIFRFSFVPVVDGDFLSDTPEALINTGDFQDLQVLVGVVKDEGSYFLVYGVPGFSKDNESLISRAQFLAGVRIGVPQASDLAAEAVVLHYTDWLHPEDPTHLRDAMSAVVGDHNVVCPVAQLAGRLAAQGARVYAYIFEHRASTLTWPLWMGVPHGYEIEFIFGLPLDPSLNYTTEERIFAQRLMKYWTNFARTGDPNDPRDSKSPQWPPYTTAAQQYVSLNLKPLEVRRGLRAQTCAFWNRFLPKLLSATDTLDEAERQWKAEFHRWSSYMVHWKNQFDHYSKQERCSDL

serotonin re-uptake = molecular target: T2, serotonin re-uptake (Rattus norvegicus, UniProt P31652); experiment: Serotonin re-uptake inhibitory activity (synaptosome, [3H]5-HT); type: biochemical
T2 construct: synaptosome prepared from rat whole brains except the cerebellums; from tissue; host or cells: synaptosomes from rat whole brain except the cerebellum
T2 sequence (P31652 whole entry): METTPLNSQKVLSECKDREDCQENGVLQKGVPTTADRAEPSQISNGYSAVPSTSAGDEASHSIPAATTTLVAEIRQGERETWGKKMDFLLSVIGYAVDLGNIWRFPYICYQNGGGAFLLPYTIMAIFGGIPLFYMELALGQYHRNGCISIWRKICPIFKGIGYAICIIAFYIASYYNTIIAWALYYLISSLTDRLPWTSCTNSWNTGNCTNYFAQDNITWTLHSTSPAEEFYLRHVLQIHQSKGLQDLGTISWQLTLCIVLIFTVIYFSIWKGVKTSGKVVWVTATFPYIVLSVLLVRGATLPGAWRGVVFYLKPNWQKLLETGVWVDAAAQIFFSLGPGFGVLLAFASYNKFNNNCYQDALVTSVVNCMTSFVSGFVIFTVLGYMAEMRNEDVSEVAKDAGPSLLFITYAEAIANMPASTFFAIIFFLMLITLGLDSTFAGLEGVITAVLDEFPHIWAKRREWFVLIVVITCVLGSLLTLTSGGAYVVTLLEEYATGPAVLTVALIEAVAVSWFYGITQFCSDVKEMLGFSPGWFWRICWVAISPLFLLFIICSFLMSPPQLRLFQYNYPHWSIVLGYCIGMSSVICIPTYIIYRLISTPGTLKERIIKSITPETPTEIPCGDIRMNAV
Method: Serotonin re-uptake inhibitory activity was determined using synaptosome prepared from rat whole brains except the cerebellums. Briefly, 10 μl of DMSO solution-dissolved test substance (control group; DMSO solution alone) was added to 1 ml of synaptosome and incubated for 5 min at 37° C. (in the control, DMSO alone was added to the synaptosome and incubated at 4° C.). Furthermore, 10 μl of [^3H]5-HT solution (final concentration: 10 μM as a total concentration of 5-HT, 100 nM as [^3H]5-HT) was added and incubated for 5 min at 37° C. Then 4 ml of ice-cold saline was added to stop the response. The response solution was filtered, 4 ml of saline was added, and the solution was once again filtered. Furthermore, 5 ml of Pico-Fluor was added, then ^3H levels on filter papers were counted by a liquid scintillation counter. Concentrations of test compounds to inhibit serotonin re-uptake by 50% (IC50) were calculated.

[1] = synaptosome from rat whole brain except cerebellum, [3H]5-HT, 37° C., read-out: IC50 (nM) Serotonin re-uptake inhibitory activity

Molecule: CN(C)C(=O)Oc1cccc(C(CCOc2ccc([N+](=O)[O-])cc2)N(C)C)c1 (stereo not shown) [Test Compound 104, 3-[1-Dimethylamino-3-(4-nitrophenoxy)propyl]phenyl dimethylcarbamate hydrochloride]
- IC50 (acetylcholinesterase): 0.053 µM
- IC50 (serotonin re-uptake; [1]): 176 nM

Molecule: CNC(CCOc1cccc2ccccc12)c1ccc(OC(=O)N(C)C)cc1 (stereo not shown) [Test Compound 179, 4-[3-(Naphthalen-1-yloxy)-1-methylaminopropyl]phenyl dimethylcarbamate hydrochloride]
- IC50 (acetylcholinesterase): 0.372 µM
- IC50 (serotonin re-uptake; [1]): 86 nM

Molecule: CN(C)C(=O)Oc1ccc2c(c1)CCN(C)[C@@H]2CCOc1ccc([N+](=O)[O-])cc1Cl [Test Compound 190, 2-Methyl-1-(R)-[2-(2-chloro-4-nitrophenoxy)-ethyl]-1,2,3,4-tetrahydroisoquinolin-6-yl dimethylcarbamate hydrochloride]
- IC50 (acetylcholinesterase): 0.012 µM
- IC50 (serotonin re-uptake; [1]): 460 nM

Molecule: CN(C)C(=O)Oc1ccc(C(CCOc2ccc(F)c(F)c2)N(C)C)cc1 (stereo not shown) [Test Compound 76, 4-[3-(3,4-Difluorophenoxy)-1-dimethylaminopropyl]phenyl dimethylcarbamate hydrochloride]
- IC50 (acetylcholinesterase): 0.3 µM
- IC50 (serotonin re-uptake; [1]): 124 nM

Molecule: CN(C)C(=O)Oc1ccc2c(c1)C=CCN(C)[C@@H]2CCOc1ccc([N+](=O)[O-])cc1 [Test Compound 199, 2-Methyl-[[(1S)]] (1R)-[2-(4-nitrophenoxy)-ethyl]-2,3-dihydro-1H-benzo[c]azepin-7-yl dimethylcarbamate hydrochloride]
- IC50 (serotonin re-uptake; [1]): 6 nM

Molecule: CN[C@H](CCOc1ccc([N+](=O)[O-])cc1)c1ccc(OC(=O)N(C)C)c(C)c1 [Test Compound 184, (R)-4-[3-(4-Nitrophenoxy)-1-methylaminopropyl]-2-methylphenyl dimethylcarbamate hydrochloride]
- IC50 (acetylcholinesterase): 0.056 µM
- IC50 (serotonin re-uptake; [1]): 49 nM

Molecule: CN[C@@H](CCOc1ccc([N+](=O)[O-])cc1Cl)c1ccc(OC(=O)N(C)C)cc1 [Test Compound 127, (S)-4-[3-(2-Chloro-4-nitrophenoxy)-1-methylaminopropyl]phenyl dimethylcarbamate hydrochloride]
- IC50 (acetylcholinesterase): 0.04 µM
- IC50 (serotonin re-uptake; [1]): 856 nM

Molecule: CN(C)C(=O)Oc1ccc(C(CCOc2cccc(F)c2)N(C)C)cc1 (stereo not shown) [Test Compound 70, 4-[1-Dimethylamino-3-(3-fluorophenoxy)propyl]phenyl dimethylcarbamate hydrochloride]
- IC50 (acetylcholinesterase): 0.09 µM
- IC50 (serotonin re-uptake; [1]): 86 nM

Molecule: (S)-4-[3-(4-Methylthiophenoxy)-1-methylaminopropyl]phenyl dimethylcarbamate hydrochloride [Test Compound 176]
- IC50 (serotonin re-uptake; [1]): 56 nM

Molecule: CNC(CCOc1ccc(Cl)c([N+](=O)[O-])c1)c1cccc(OC(=O)N(C)C)c1 (stereo not shown) [Test Compound 203, 3-[3-(4-Chloro-3-nitrophenoxy)-1-methylaminopropyl]phenyl dimethylcarbamate hydrochloride]
- IC50 (acetylcholinesterase): 0.049 µM
- IC50 (serotonin re-uptake; [1]): 40 nM

Molecule: 4-[3-(4-Chlorophenoxy)-1-dimethylaminopropyl]-2-methylphenyl dimethylcarbamate hydrochloride [Test Compound 185]
- IC50 (serotonin re-uptake; [1]): 170 nM

Molecule: 4-[3-(4-Methylthiophenoxy)-1-dimethylaminopropyl]-2-methylphenyl dimethylcarbamate hydrochloride [Test Compound 186]
- IC50 (serotonin re-uptake; [1]): 62 nM

Molecule: CN(C)C(=O)Oc1ccc(C(CCOc2ccc([N+](=O)[O-])cc2Cl)N(C)C)cc1 (stereo not shown) [Test Compound 131, 4-[3-(2-Chloro-4-nitrophenoxy)-1-dimethylaminopropyl]phenyl dimethylcarbamate hydrochloride]
- IC50 (acetylcholinesterase): 0.057 µM
- IC50 (serotonin re-uptake; [1]): 129 nM

Molecule: CN(C)C(=O)Oc1ccc2c(c1)CCN(C)C2CCOc1ccc([N+](=O)[O-])cc1 (stereo not shown) [Test Compound 187, 2-Methyl-1-[2-(4-nitrophenoxy) -ethyl]-1,2,3,4-tetrahydroisoquinolin-6-yl dimethylcarbamate hydrochloride]
- IC50 (acetylcholinesterase): 0.011 µM
- IC50 (serotonin re-uptake; [1]): 940 nM

Molecule: CN(C)C(=O)Oc1cccc([C@@H](CCOc2ccc([N+](=O)[O-])cc2)N(C)C)c1 [Test Compound 136, (R)-3-[3-(4-Nitrophenoxy)-1-dimethylaminopropyl]phenyl dimethylcarbamate hydrochloride]
- IC50 (acetylcholinesterase): 0.98 µM
- IC50 (serotonin re-uptake; [1]): 236 nM

Molecule: CNC(CCOc1ccc([N+](=O)[O-])cc1)c1cccc(OC(=O)N(C)C)c1 (stereo not shown) [Test Compound 95, 3-[1-Methylamino-3-(4-nitrophenoxy)propyl]phenyl dimethylcarbamate hydrochloride]
- IC50 (acetylcholinesterase): 0.052 µM
- IC50 (serotonin re-uptake; [1]): 221 nM

Molecule: CN(C)C(=O)Oc1ccc2c(c1)CCN(C)C2CCOc1ccc([N+](=O)[O-])cc1Cl (stereo not shown) [Test Compound 189, 2-Methyl-1-[2-(2-chloro-4-nitrophenoxy)-ethyl]-1,2,3,4-tetrahydroisoquinolin-6-yl dimethylcarbamate hydrochloride]
- IC50 (acetylcholinesterase): 0.006 µM
- IC50 (serotonin re-uptake; [1]): 300 nM

Molecule: 4-[3-(4-Methylthiophenoxy)-1-dimethylaminopropyl]phenyl dimethylcarbamate hydrochloride [Test Compound 175]
- IC50 (serotonin re-uptake; [1]): 380 nM

Molecule: CNC(CCOc1ccc(F)cc1)c1ccc(OC(=O)N(C)C)cc1 (stereo not shown) [Test Compound 30, 4-[3-(4-Fluorophenoxy)-1-methylaminopropyl]phenyl dimethylcarbamate hydrochloride]
- IC50 (acetylcholinesterase): 0.79 µM
- IC50 (serotonin re-uptake; [1]): 594 nM

Molecule: CNC(CCOc1cccc(Cl)c1)c1ccc(OC(=O)N(C)C)cc1 (stereo not shown) [Test Compound 38, 4-[3-(3-chlorophenoxy)-1-methylaminopropyl]phenyl dimethylcarbamate hydrochloride]
- IC50 (acetylcholinesterase): 0.175 µM
- IC50 (serotonin re-uptake; [1]): 199 nM

Molecule: CN(C)C(=O)Oc1ccc([C@H](CCOc2ccc([N+](=O)[O-])cc2Cl)N(C)C)cc1 [Test Compound 129, (S)-4-[3-(2-Chloro-4-nitrophenoxy)-1-dimethylaminopropyl]phenyl dimethylcarbamate hydrochloride]
- IC50 (acetylcholinesterase): 0.064 µM
- IC50 (serotonin re-uptake; [1]): 650 nM

Molecule: CN(C)C(=O)Oc1ccc(C(CCOc2ccc([N+](=O)[O-])cc2)N(C)C)cc1 (stereo not shown) [Test Compound 89, 4-[1-Dimethylamino-3-(4-nitrophenoxy)propyl]phenyl dimethylcarbamate hydrochloride]
- IC50 (acetylcholinesterase): 0.087 µM
- IC50 (serotonin re-uptake; [1]): 319 nM

Molecule: 4-[3-(4-Methylthiophenoxy)-1-methylaminopropyl]phenyl dimethylcarbamate hydrochloride [Test Compound 174]
- IC50 (serotonin re-uptake; [1]): 85 nM

Molecule: CN[C@@H](CCOc1ccc([N+](=O)[O-])cc1)c1ccc(OC(=O)N(C)C)c(C)c1 [Test Compound 183, (S)-4-[3-(4-Nitrophenoxy)-1-methylaminopropyl]-2-methylphenyl dimethylcarbamate hydrochloride]
- IC50 (acetylcholinesterase): 0.026 µM
- IC50 (serotonin re-uptake; [1]): 67 nM

Molecule: 2-Methyl-1-[2-(4-methylthiophenoxy)-ethyl]-2,3-dihydro-1H-benzo[c]azepin-7-yl dimethylcarbamate hydrochloride [Test Compound 196]
- IC50 (serotonin re-uptake; [1]): 18 nM

Molecule: (R)-4-[3-(4-Methylthiophenoxy)-1-methylaminopropyl]phenyl dimethylcarbamate hydrochloride [Test Compound 177]
- IC50 (serotonin re-uptake; [1]): 120 nM

Molecule: CN(C)C(=O)Oc1ccc2c(c1)C=CCN(C)C2CCOc1ccc([N+](=O)[O-])cc1 (stereo not shown) [Test Compound 192, 2-Methyl-1-[2-(4-nitrophenoxy)-ethyl]-2,3-dihydro-1H-benzo[c]azepin-7-yl dimethylcarbamate hydrochloride]
- IC50 (serotonin re-uptake; [1]): 63 nM

Molecule: CN(C)C(=O)Oc1ccc2c(c1)C=CCN(C)[C@H]2CCOc1ccc([N+](=O)[O-])cc1 [Test Compound 200, 2-Methyl-(1S)-[2-(4-nitrophenoxy)-ethyl]-2,3-dihydro-1H-benzo[c]azepin-7-yl dimethylcarbamate hydrochloride]
- IC50 (serotonin re-uptake; [1]): 930 nM

Molecule: 2-Methyl-(1R)-[2-(4-methylthiophenoxy)-ethyl]-2,3-dihydro-1H-benzo[c]azepin-7-yl dimethylcarbamate hydrochloride [Test Compound 197]
- IC50 (serotonin re-uptake; [1]): 6 nM

Molecule: 4-[3-(4-Nitrophenoxy)-1-dimethylaminopropyl]-2-methylphenyl dimethylcarbamate hydrochloride [Test Compound 182]
- IC50 (serotonin re-uptake; [1]): 44 nM

Molecule: Cc1cc(OCCC2c3cccc(OC(=O)N(C)C)c3C=CCN2C)ccc1Cl (stereo not shown) [Test Compound 202, 2-Methyl-[2-(4-chloro-3-methylphenoxy)-ethyl]-2,3-dihydro-1H-benzo[c]azepin-6-yl dimethylcarbamate hydrochloride]
- IC50 (serotonin re-uptake): 900 nM
